Data taken from patent publication US4504580A, “Antibiotics produced by fermentation of a novel strain of Streptomyces hygroscopicus” (Bristol-Myers Company, priority 1983, dated 1985).
In brackets after ≈: the same amount, converted by molar mass. Read-outs that look alike come from different tables or passages of the source.

Tests used:
[1] = tested on: Pseudomonas aeruginosa A9930; assay: MIC by serial two-fold agar dilution, P. aeruginosa A9930; format: cell-based; conditions: Mueller-Hinton agar
Procedure: (§1) The minimum inhibitory concentrations (MIC) of Bu-2659A, B, C, D and E were determined for a variety of gram-positive and gram-negative bacteria by the serial two-fold agar dilution method using the Steer's multi-inoculating apparatus. The inoculum was standardized as a 10^4 dilution of an overnight culture of the test organisms in Heart Infusion Broth (Difco). […] Reference antibiotics utilized in these tests included commercially available neomycin as well as its components, neomycins B and C [as used herein, the term "neomycin" means the commercial product containing neomycins B and C at an approximate ratio of 7:3], paromomycin [the commercial product containing >90% of paromomycin I and <10% of paromomycin II] and ribostamycin.

[2] = tested on: Staphylococcus aureus Smith; assay: MIC by serial two-fold agar dilution, S. aureus Smith; format: cell-based; conditions: Mueller-Hinton agar
Procedure: as §1

[3] = tested on: Bacillus subtilis PCI 219; assay: MIC by serial two-fold agar dilution, B. subtilis PCI 219; format: cell-based; conditions: Mueller-Hinton agar
Procedure: as §1

[4] = tested on: Klebsiella pneumoniae D11; assay: MIC by serial two-fold agar dilution, K. pneumoniae D11; format: cell-based; conditions: Mueller-Hinton agar
Procedure: as §1

Escherichia coli NIHJ = assay: MIC by serial two-fold agar dilution, E. coli NIHJ; format: cell-based; conditions: Mueller-Hinton agar
Procedure: as §1

Proteus vulgaris A9436 = assay: MIC by serial two-fold agar dilution, P. vulgaris A9436; format: cell-based; conditions: Mueller-Hinton agar
Procedure: as §1

bacteria of Table 10 = assay: In vitro activity of Bu-2659 DP-I vs neamine, overall, Table 10; format: cell-based
Procedure: as §1
The in vitro activity of Bu-2659 DP-I (1-deamino-1-hydroxyneamine) is shown in Table 10 along with that of neamine.

Escherichia coli JR88 = assay: MIC, aminoglycoside-resistant E. coli JR88; format: cell-based
Procedure: as §1

Proteus mirabilis A9554 = assay: MIC by serial two-fold agar dilution, P. mirabilis A9554; format: cell-based; conditions: Mueller-Hinton agar
Procedure: as §1

[5] = tested on: Staphylococcus aureus 209P; assay: MIC by serial two-fold agar dilution, S. aureus 209P; format: cell-based; conditions: Mueller-Hinton agar
Procedure: as §1

[6] = tested on: Neisseria gonorrhoeae A20143; assay: MIC by serial two-fold agar dilution, N. gonorrhoeae A20143; format: cell-based; conditions: Table 8; GC medium
Procedure: as §1

Proteus morganii A9553 = assay: MIC by serial two-fold agar dilution, P. morganii A9553; format: cell-based; conditions: Table 7; Mueller-Hinton agar
Procedure: as §1

[7] = tested on: Streptococcus pyogenes A20201; assay: MIC by serial two-fold agar dilution, S. pyogenes A20201; format: cell-based; conditions: Table 8; GC medium
Procedure: as §1

Escherichia coli A20107 = assay: MIC, aminoglycoside-resistant E. coli A20107; format: cell-based; conditions: Table 9; inactivating enzyme APH(3')-II; Mueller-Hinton agar
Procedure: as §1

[8] = tested on: Pseudomonas aeruginosa D15; assay: MIC by serial two-fold agar dilution, P. aeruginosa D15; format: cell-based; conditions: Table 7; Mueller-Hinton agar
Procedure: as §1

[9] = tested on: Haemophilus influenzae A9729; assay: MIC by serial two-fold agar dilution, H. influenzae A9729; format: cell-based; conditions: Table 8; GC medium
Procedure: as §1

[10] = tested on: Staphylococcus aureus A20239; assay: MIC, aminoglycoside-resistant S. aureus A20239; format: cell-based; conditions: Table 9; inactivating enzyme APH(3')-I,II; Mueller-Hinton agar
Procedure: as §1

Proteus rettgeri A15167 = assay: MIC by serial two-fold agar dilution, P. rettgeri A15167; format: cell-based; conditions: Table 7; Mueller-Hinton agar
Procedure: as §1

Escherichia coli Juhl [11] = assay: Experimental systemic infection in mice, E. coli Juhl; format: in vivo; conditions: im, single treatment, 4 days
Procedure: (§2) The in vivo activity of Bu-2659A was assessed by experimental systemic infection in mice. The pathogenic bacteria used in the in vivo tests were E. coli Juhl, K. pneumoniae D-11, P. mirabilis A9906, S. aureus Smith and S. pyogenes A20201. Mice were challenged intraperitoneally with approximately 100×LD50 dose of the pathogens in a 5% suspension of hog gastric mucin (American Laboratories, Omaha, Neb.). A single intramuscular treatment with the antibiotic was given immediately after the bacterial challenge. […] Neomycin was comparatively tested as a reference compound. […] In terms of PD50 value Bu-2659A was about one-half as active as neomycin against infections with S. aureus and S. pyogenes.

Proteus mirabilis A9906 [12] = assay: MIC by serial two-fold agar dilution, P. mirabilis A9906; format: cell-based; conditions: Table 7; Mueller-Hinton agar
Procedure: as §1

[13] = tested on: Escherichia coli NR79/W677; assay: MIC, aminoglycoside-resistant E. coli NR79/W677; format: cell-based; conditions: Table 9; inactivating enzyme AAC(6')-I; Mueller-Hinton agar
Procedure: as §1

[14] = tested on: Streptococcus pneumoniae Type I; assay: MIC by serial two-fold agar dilution, S. pneumoniae Type I; format: cell-based; conditions: Table 8; GC medium
Procedure: as §1

[15] = tested on: species of Streptococcus and Mycobacterium; assay: Antibacterial activity (MIC), overall, Streptococcus and Mycobacterium, Table 8; format: cell-based
Procedure: as §1

[16] = tested on: Enterobacter cloacae A20364; assay: MIC, aminoglycoside-resistant E. cloacae A20364; format: cell-based; conditions: Table 9; inactivating enzyme APH(3')-I; Mueller-Hinton agar
Procedure: as §1

[17] = tested on: Pseudomonas aeruginosa A20601; assay: MIC, aminoglycoside-resistant P. aeruginosa A20601; format: cell-based; conditions: Table 9; inactivating enzymes AAC(3)-I, APH(3')-II; Mueller-Hinton agar
Procedure: as §1

Micrococcus flavus D12 = assay: MIC by serial two-fold agar dilution, M. flavus D12; format: cell-based; conditions: Table 7; Mueller-Hinton agar
Procedure: as §1

[18] = tested on: Neisseria meningitidis A21496; assay: MIC by serial two-fold agar dilution, N. meningitidis A21496; format: cell-based; conditions: Table 8; GC medium
Procedure: as §1

[19] = tested on: Micrococcus luteus PCI 1001; assay: MIC by serial two-fold agar dilution, M. luteus PCI 1001; format: cell-based; conditions: Table 7; Mueller-Hinton agar
Procedure: as §1

[20] = tested on: Pseudomonas aeruginosa A20896; assay: MIC, aminoglycoside-resistant P. aeruginosa A20896; format: cell-based; conditions: Table 9; inactivating enzyme AAC(3)-II; Mueller-Hinton agar
Procedure: as §1

[21] = tested on: Serratia marcescens A20019; assay: MIC by serial two-fold agar dilution, S. marcescens A20019; format: cell-based; conditions: Table 7; Mueller-Hinton agar
Procedure: as §1

[22] = tested on: Mycobacterium smegmatis 607; assay: MIC by serial two-fold agar dilution, M. smegmatis 607; format: cell-based; conditions: Table 8; No. 1001 medium
Procedure: as §1

[23] = tested on: Staphylococcus aureus Smith; assay: Experimental systemic infection in mice, S. aureus Smith; format: in vivo; conditions: im, single treatment, 4 days
Procedure: as §2

Acute toxicity in mice = format: in vivo; conditions: mice
Procedure: The acute toxicity of Bu-2659A was determined in mice by intravenous, intraperitoneal and subcutaneous routes. Neomycin also was tested for comparison purposes. […] The toxicity of Bu-2659A was approximately 1/3 that of neomycin in terms of LD50 values, thus presenting a potential clinical advantage for Bu-2659A.

[24] = tested on: Streptococcus pyogenes A20201; assay: Experimental systemic infection in mice, S. pyogenes A20201; format: in vivo; conditions: im, single treatment, 4 days
Procedure: as §2

[25] = tested on: Escherichia coli JR35/C600; assay: MIC, aminoglycoside-resistant E. coli JR35/C600; format: cell-based; conditions: Table 9; inactivating enzyme APH(3')-I; Mueller-Hinton agar
Procedure: as §1

[26] = tested on: Klebsiella pneumoniae D-11; assay: Experimental systemic infection in mice, K. pneumoniae D-11; format: in vivo; conditions: im, single treatment, 4 days
Procedure: as §2

[27] = tested on: Staphylococcus aureus D136; assay: MIC by serial two-fold agar dilution, S. aureus D136; format: cell-based; conditions: Table 7; Mueller-Hinton agar
Procedure: as §1

Mycobacterium phlei = assay: MIC by serial two-fold agar dilution, M. phlei; format: cell-based; conditions: Table 8; No. 1001 medium
Procedure: as §1

Mycobacterium ranae = assay: MIC by serial two-fold agar dilution, M. ranae; format: cell-based; conditions: Table 8; No. 1001 medium
Procedure: as §1

Escherichia coli Juhl [28] = assay: MIC by serial two-fold agar dilution, E. coli Juhl; format: cell-based; conditions: Table 7; Mueller-Hinton agar
Procedure: as §1

Proteus mirabilis A9906 [29] = assay: Experimental systemic infection in mice, P. mirabilis A9906; format: in vivo; conditions: im, single treatment, 4 days
Procedure: as §2

Escherichia coli ML 1630 = assay: MIC, aminoglycoside-resistant E. coli ML 1630; format: cell-based; conditions: Table 9; inactivating enzyme APH(3')-I; Mueller-Hinton agar
Procedure: as §1

Escherichia coli A20732 = assay: MIC, aminoglycoside-resistant E. coli A20732; format: cell-based; conditions: Table 9; inactivating enzyme ANT(2"); Mueller-Hinton agar
Procedure: as §1

[30] = tested on: Escherichia coli JR66/W677; assay: MIC, aminoglycoside-resistant E. coli JR66/W677; format: cell-based; conditions: Table 9; inactivating enzymes APH(3')-II, ANT(2"); Mueller-Hinton agar
Procedure: as §1

[31] = tested on: Bacillus brevis IFO 12334; assay: MIC, aminoglycoside-resistant B. brevis IFO 12334; format: cell-based; conditions: Table 9; inactivating enzyme ANT (4'); Mueller-Hinton agar
Procedure: as §1

## NC[C@H]1O[C@H](O[C@H]2[C@H](O)[C@@H](O)[C@H](O)C[C@@H]2N)[C@H](N)[C@@H](O)[C@@H]1O [Bu-2659 DP-I, 1-deamino-1-hydroxyneamine]
[1]; Pseudomonas aeruginosa, A9930, Table 10, read-out: MIC
  MIC: > 800 µg/mL
[2]; Staphylococcus aureus, Table 10, read-out: MIC
  MIC: 200 µg/mL (≈ 619 µM)
[3]; Bacillus subtilis, PCI219, Table 10, read-out: MIC
  MIC: 100 µg/mL (≈ 309 µM)
[4]; Klebsiella pneumoniae, D11, Table 10, read-out: MIC
  MIC: 200 µg/mL (≈ 619 µM)
Escherichia coli NIHJ; Escherichia coli, Table 10, read-out: MIC
  MIC: 200 µg/mL (≈ 619 µM)
Proteus vulgaris A9436; Proteus vulgaris, A9436, Table 10, read-out: MIC
  MIC: 200 µg/mL (≈ 619 µM)
Bacteria of Table 10
  in vitro activity compared with neamine, in words: much less active than neamine
Escherichia coli JR88; Escherichia coli, JR88
  MIC: 200 µg/mL (≈ 619 µM)
Proteus mirabilis A9554; Proteus mirabilis, A9554, Table 10, read-out: MIC
  MIC: 800 µg/mL (≈ 2470 µM)
[5]; Staphylococcus aureus, 209P, Table 10, read-out: MIC
  MIC: 200 µg/mL (≈ 619 µM)

## neomycin
[6]
  MIC: > 400 µg/mL
[1]; Table 7
  MIC: 3.1 µg/mL
Proteus morganii A9553
  MIC: 3.1 µg/mL
[2]; Table 7
  MIC: 0.8 µg/mL
[7]
  MIC: 12.5 µg/mL
[3]; Table 7
  MIC: < 0.05 µg/mL
Escherichia coli A20107
  MIC: 100 µg/mL
[8]
  MIC: 3.1 µg/mL
[9]
  MIC: 400 µg/mL
[10]
  MIC: 25 µg/mL
Proteus rettgeri A15167
  MIC: 1.6 µg/mL
[4]; Table 7
  MIC: 0.4 µg/mL
Escherichia coli Juhl [11]
  PD50: 3.1 mg/kg
Proteus mirabilis A9906 [12]
  MIC: 0.8 µg/mL
[13]
  MIC: 50 µg/mL
Escherichia coli NIHJ; Table 7
  MIC: 1.6 µg/mL
[14]
  MIC: 25 µg/mL
[15]
  activity against Streptococcus and Mycobacterium, in words: equivalent activity
[16]
  MIC: > 100 µg/mL
[17]
  MIC: 12.5 µg/mL
Micrococcus flavus D12
  MIC: 3.1 µg/mL
[18]
  MIC: 400 µg/mL
Proteus vulgaris A9436; Table 7
  MIC: 0.8 µg/mL
[19]
  MIC: 0.8 µg/mL
[20]
  MIC: > 100 µg/mL
Escherichia coli JR88; Table 9, inactivating enzyme AAC(3)-I, Mueller-Hinton agar
  MIC: 1.6 µg/mL
Proteus mirabilis A9554; Table 7
  MIC: 0.8 µg/mL
[21]
  MIC: 1.6 µg/mL
[22]
  MIC: 0.4 µg/mL
[23]
  PD50: 0.31 mg/kg
[5]; Table 7
  MIC: 0.4 µg/mL
Acute toxicity in mice; intraperitoneal
  LD50: 180 mg/kg
Acute toxicity in mice; intravenous
  LD50: 34 mg/kg
Acute toxicity in mice; subcutaneous
  LD50: 280 mg/kg
[24]
  PD50: 50 mg/kg
[25]
  MIC: > 100 µg/mL
[26]
  PD50: 0.9 mg/kg
[27]
  MIC: 0.8 µg/mL
Mycobacterium phlei
  MIC: 0.2 µg/mL
Mycobacterium ranae
  MIC: 0.4 µg/mL
Escherichia coli Juhl [28]
  MIC: 3.1 µg/mL
Proteus mirabilis A9906 [29]
  PD50: 1.8 mg/kg
Escherichia coli ML 1630
  MIC: > 100 µg/mL
Escherichia coli A20732
  MIC: 0.8 µg/mL
[30]
  MIC: > 100 µg/mL
[31]
  MIC: 25 µg/mL
